These results are taken from patent US10604554B2, “Double-acylated GLP-1 derivatives” (Novo Nordisk A/S, priority 2012, dated 2020).

For one series, the target named is T1, human GLP-1 receptor (Homo sapiens, UniProt P43220).
T1 construct: expressed in transfected cells; host or cells: BHK cells, clone FCW467-12A/KZ10-1 (parent line BHKTS13), further transfected with CRE luciferase
Briefly: In vitro potency (AlphaScreen cAMP, membranes). In kind it is biochemical. The gist of the method:
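AlphaScreen competition read-out (anti-cAMP acceptor beads vs biotinylated cAMP, 3 h room temperature) quantified cAMP made by human GLP-1 receptor membranes, 6 μg/well, from stably transfected BHK467-12A cells. Buffer pH 7.4 contained 1 mM ATP, 1 μM GTP, 0.5 mM IBMX and 0.1% BSA; cAMP standard curve included.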

The nature of a further series: in vivo. Conditions: male, Sprague Dawley, rat, iv.
Series [1] has as its system Landrace Yorkshire Duroc (LYD) pigs. Briefly: Pharmacodynamic (PD) study in pigs, food intake. The series is classed as in vivo, pig. Conditions: single s.c. dose 3.0 nmol/kg; for PD in pig, food intake (% of vehicle) for hours 0-24: 0-24 h; for PD in pig, food intake (% of vehicle) for hours 24-48: 24-48 h; for reduction in food intake (in words): versus vehicle. The procedure:
The purpose of this experiment was to investigate the effect of a couple of Example compounds on food intake in pigs. This was done in a pharmacodynamic (PD) study as described below, in which food intake was measured from 1 to 4 days after administration of a single dose of the GLP-1 derivative, as compared to a vehicle-treated control group.
Female Landrace Yorkshire Duroc (LYD) pigs, approximately 3 months of age, weighing approximately 30-35 kg were used (n=3-4 per group). The animals were housed in a group for approximately 1 week during acclimatisation to the animal facilities. During the experimental period the animals were placed in individual pens at least 2 days before dosing and during the entire experiment for measurement of individual food intake. The animals were fed ad libitum with pig fodder (Svinefoder Danish Top) at all times both during the acclimatisation and the experimental period. Food intake was monitored on line by logging the weight of fodder every 15 minutes. The system used was Mpigwin (Ellegaard Systems, Faaborg, Denmark).
The phosphate buffer serves as vehicle. Animals are dosed with a single subcutaneous dose of the GLP-1 derivative or vehicle (dose volume 0.025 ml/kg) on the morning of day 1, and food intake is measured for 1 day after dosing. On the last day of each study, 1-4 days after dosing, a blood sample for measurement of plasma exposure of the GLP-1 derivative is taken from the heart in anaesthetised animals. The animals are thereafter euthanised with an intra-cardial overdose of pentobarbitone.
Food intake is calculated as mean±SEM food intake in 24 h intervals (0-24 h, 24-48 h, and 48-72 h). In Table 6 below the food intake is indicated as percentage of the food intake of the vehicle group in the same time interval (dosage 3.0 nmol/kg).
Statistical comparisons of the food intake in the 24 h intervals in the vehicle vs. GLP-1 derivative group are done using two-way-ANOVA repeated measures, followed by Bonferroni post-test.

Series [2] is described as follows: Pharmacokinetic (PK) study in rat. Conditions: male, Sprague Dawley, in vivo, iv, 6 nmol/kg.
A short description of series [3]: Pharmacokinetic (PK) study in minipig. The note with it: male, Göttingen, in vivo, iv.
Description: The purpose of this study is to determine the protraction in vivo of the GLP-1 derivatives after i.v. administration to minipigs, i.e. the prolongation of their time of action. This is done in a pharmacokinetic (PK) study, where the terminal half-life of the derivative in question is determined. By terminal half-life is generally meant the period of time it takes to halve a certain plasma concentration, measured after the initial distribution phase.
Study A: Male Göttingen minipigs were obtained from Ellegaard Göttingen Minipigs (Dalmose, Denmark) approximately 7-14 months of age and weighing from approximately 16-35 kg were used in the studies. The minipigs were housed individually and fed restrictedly once or twice daily with SDS minipig diet (Special Diets Services, Essex, UK). After at least 2 weeks of acclimatisation two permanent central venous catheters were implanted in vena cava caudalis or cranialis in each animal. The animals were allowed 1 week recovery after the surgery, and were then used for repeated pharmacokinetic studies with a suitable wash-out period between successive GLP-1 derivative dosings.
The animals were fasted for approximately 18 h before dosing and from 0 to 4 h after dosing, but had ad libitum access to water during the whole period.
The GLP-1 derivatives were dissolved in 50 mM sodium phosphate, 145 mM sodium chloride, 0.05% tween 80, pH 7.4 to a concentration of usually from 20-60 nmol/ml. […] Blood samples (for example 0.8 ml) were collected in EDTA buffer (8 mM) and then centrifuged at 4° C. and 1942 G for 10 minutes.
Study B: Male Göttingen minipigs were obtained from Ellegaard Göttingen Minipigs (Dalmose, Denmark) approximately 5 months of age and weighing from approximately 9 kg were used in the studies. The minipigs were housed in pens with straw as bedding, six together in each pen and fed restrictedly once or twice daily with Altromin 9023 minipig diet (Chr. Petersen A/S, DK-4100 Ringsted) or Standard SMP(E) minipig diet (Special Diet Services (SDS), UK). The pigs were used for repeated pharmacokinetic studies with a suitable wash-out period between successive GLP-1 derivative dosings.
The GLP-1 derivatives were dissolved in 50 mM sodium phosphate, 145 mM sodium chloride, 0.05% tween 80, pH 7.4 to a concentration of usually from 20-60 nmol/ml. Intravenous injections (the volume corresponding to usually 2 nmol/kg, for example 0.1 ml/kg) of the compounds were given as intravenous injections via a Venflon inserted in an ear vein, while they are placed unanaesthetised in a sling. The dose volume was 0.1 ml/kg, and blood was sampled at predefined time points for up till 17 days post dosing (samples was taken with syringe from a jugular vein).
Individual plasma concentration-time profiles were analyzed by a non-compartmental model in Phoenix WinNonLin ver. […] (Pharsight Inc., Mountain View, Calif., USA), and the resulting terminal half-lives (harmonic mean) determined.

SMILES strings stand for the structures. Where two headings read alike, the source gives them in different places.

T1 sequence (P43220 24-463): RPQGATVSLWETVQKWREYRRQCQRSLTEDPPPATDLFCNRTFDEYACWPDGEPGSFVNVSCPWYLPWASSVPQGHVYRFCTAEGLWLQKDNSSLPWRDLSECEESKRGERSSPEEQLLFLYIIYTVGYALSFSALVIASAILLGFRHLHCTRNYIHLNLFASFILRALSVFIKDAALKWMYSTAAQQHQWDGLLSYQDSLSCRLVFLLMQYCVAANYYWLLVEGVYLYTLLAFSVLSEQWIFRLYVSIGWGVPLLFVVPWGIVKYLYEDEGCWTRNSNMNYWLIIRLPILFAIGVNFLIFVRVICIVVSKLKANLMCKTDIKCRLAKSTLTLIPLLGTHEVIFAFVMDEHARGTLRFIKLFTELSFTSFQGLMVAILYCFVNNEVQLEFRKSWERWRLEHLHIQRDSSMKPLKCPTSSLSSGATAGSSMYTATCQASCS

As for `CC[C@H](C)[C@H](NC(=O)[C@H](Cc1ccccc1)NC(=O)[C@H](CCC(=O)O)NC(=O)[C@H](CCCCNC(=O)[C@@H](N)CCCCNC(=O)[C@@H](N)CCCCNC(=O)CC[C@H](NC(=O)CCCCCCCCCCCCCCCCC(=O)O)C(=O)O)NC(=O)[C@H](C)NC(=O)[C@H](C)NC(=O)[C@H](CCC(N)=O)NC(=O)CNC(=O)[C@H](CCC(=O)O)NC(=O)[C@H](CC(C)C)NC(=O)[C@H](Cc1ccc(O)cc1)NC(=O)[C@H](CO)NC(=O)[C@H](CO)NC(=O)[C@@H](NC(=O)[C@H](CC(=O)O)NC(=O)[C@H](CO)NC(=O)[C@@H](NC(=O)[C@H](Cc1ccccc1)NC(=O)[C@@H](NC(=O)CNC(=O)[C@H](CCC(=O)O)NC(=O)C(C)(C)NC(=O)[C@@H](N)Cc1c[nH]cn1)[C@@H](C)O)[C@@H](C)O)C(C)C)C(=O)N[C@@H](C)C(=O)N[C@@H](Cc1c[nH]c2ccccc12)C(=O)N[C@@H](CC(C)C)C(=O)N[C@H](C(=O)N[C@@H](CCCNC(=N)N)C(=O)NCC(=O)N[C@@H](CCCNC(=N)N)C(=O)N[C@@H](CCCCNC(=O)[C@@H](N)CCCCNC(=O)[C@@H](N)CCCCNC(=O)CC[C@H](NC(=O)CCCCCCCCCCCCCCCCC(=O)O)C(=O)O)C(=O)O)C(C)C` [Example 27, N^ε26-[(2S)-2-amino-6-[[(2S)-2-amino-6-[[(4S)-4-carboxy-4-(17-carboxyheptadecanoylamino)butanoyl]amino]hexanoyl]amino]hexanoyl], N^ε37-[(2S)-2-amino-6-[[(2S)-2-amino-6-[[(4S)-4-carboxy-4-(17-carboxyheptadecanoylamino)butanoyl]amino]hexanoyl]amino]hexanoyl]-[Aib^8,Arg^34,Lys^37]-GLP-1-(7-37)-peptide], the EC50 (commonly the concentration at which the effect is half-maximal) at human GLP-1 receptor (cAMP formation in membranes from BHK467-12A cells expressing human GLP-1 receptor, read-out: In vitro potency (AlphaScreen) EC50) turned out to be 3.69 nM. For the same molecule, the half-life (as a rule, the time needed for the level to fall by half in the phase considered) in the series “in vivo” was 21 h.
Molecule `CC[C@H](C)[C@H](NC(=O)[C@H](Cc1ccccc1)NC(=O)[C@H](CCC(=O)O)NC(=O)[C@H](CCCCNC(=O)[C@@H](N)CCCCNC(=O)[C@@H](N)CCCCNC(=O)CC[C@H](NC(=O)CC[C@H](NC(=O)CCCCCCCCCCCOc1ccc(C(=O)O)cc1)C(=O)O)C(=O)O)NC(=O)[C@H](C)NC(=O)[C@H](C)NC(=O)[C@H](CCC(N)=O)NC(=O)CNC(=O)[C@H](CCC(=O)O)NC(=O)[C@H](CC(C)C)NC(=O)[C@H](Cc1ccc(O)cc1)NC(=O)[C@H](CO)NC(=O)[C@H](CO)NC(=O)[C@@H](NC(=O)[C@H](CC(=O)O)NC(=O)[C@H](CO)NC(=O)[C@@H](NC(=O)[C@H](Cc1ccccc1)NC(=O)[C@@H](NC(=O)CNC(=O)[C@H](CCC(=O)O)NC(=O)C(C)(C)NC(=O)[C@@H](N)Cc1c[nH]cn1)[C@@H](C)O)[C@@H](C)O)C(C)C)C(=O)N[C@@H](C)C(=O)N[C@@H](Cc1c[nH]c2ccccc12)C(=O)N[C@@H](CC(C)C)C(=O)N[C@H](C(=O)N[C@@H](CCCNC(=N)N)C(=O)NCC(=O)N[C@@H](CCCNC(=N)N)C(=O)N[C@@H](CCCCNC(=O)[C@@H](N)CCCCNC(=O)[C@@H](N)CCCCNC(=O)CC[C@H](NC(=O)CC[C@H](NC(=O)CCCCCCCCCCCOc1ccc(C(=O)O)cc1)C(=O)O)C(=O)O)C(=O)O)C(C)C` [Example 16, N^ε26-[(2S)-2-amino-6-[[(2S)-2-amino-6-[[(4S)-4-carboxy-4-[[(4S)-4-carboxy-4-[12-(4-carboxyphenoxy)dodecanoylamino]butanoyl]amino]butanoyl]amino]hexanoyl]amino]hexanoyl], N^ε37-[(2S)-2-amino-6-[[(2S)-2-amino-6-[[(4S)-4-carboxy-4-[[(4S)-4-carboxy-4-[12-(4-carboxyphenoxy)dodecanoylamino]butanoyl]amino]butanoyl]amino]hexanoyl]amino]hexanoyl]-[Aib^8,Arg^34,Lys^37]-GLP-1-(7-37)-peptide] registered an EC50 at human GLP-1 receptor of 0.154 nM. Besides, in series [1], the “PD in pig, food intake (% of vehicle) for hours 0-24” value (shortened to “PD … (% of vehicle) for hours 0-24”) is on record as 33 % of vehicle and the “PD in pig, food intake (% of vehicle) for hours 24-48” value (“PD … (% of vehicle) for hours 24-48” below) is on record as 43 % of vehicle. Further, the half-life in series [2] is 17 h. The molecule also gave a half-life in series [3] of 64 h.
`CC[C@H](C)[C@H](NC(=O)[C@H](Cc1ccccc1)NC(=O)[C@H](CCC(=O)O)NC(=O)[C@H](CCCCNC(=O)[C@@H](N)CCCCNC(=O)[C@@H](N)CCCCNC(=O)CC[C@H](NC(=O)CCCCCCCCCCCOc1ccc(C(=O)O)cc1)C(=O)O)NC(=O)[C@H](C)NC(=O)[C@H](C)NC(=O)[C@H](CCC(N)=O)NC(=O)CNC(=O)[C@H](CCC(=O)O)NC(=O)[C@H](CC(C)C)NC(=O)[C@H](Cc1ccc(O)cc1)NC(=O)[C@H](CO)NC(=O)[C@H](CO)NC(=O)[C@@H](NC(=O)[C@H](CC(=O)O)NC(=O)[C@H](CO)NC(=O)[C@@H](NC(=O)[C@H](Cc1ccccc1)NC(=O)[C@@H](NC(=O)CNC(=O)[C@H](CCC(=O)O)NC(=O)C(C)(C)NC(=O)[C@@H](N)Cc1c[nH]cn1)[C@@H](C)O)[C@@H](C)O)C(C)C)C(=O)N[C@@H](C)C(=O)N[C@@H](Cc1c[nH]c2ccccc12)C(=O)N[C@@H](CC(C)C)C(=O)N[C@H](C(=O)N[C@@H](CCCNC(=N)N)C(=O)NCC(=O)N[C@@H](CCCNC(=N)N)C(=O)N[C@@H](CCCCNC(=O)[C@@H](N)CCCCNC(=O)[C@@H](N)CCCCNC(=O)CC[C@H](NC(=O)CCCCCCCCCCCOc1ccc(C(=O)O)cc1)C(=O)O)C(=O)O)C(C)C` [Example 7, N^ε26-[(2S)-2-amino-6-[[(2S)-2-amino-6-[[(4S)-4-carboxy-4-[12-(4-carboxyphenoxy)dodecanoylamino]butanoyl]amino]hexanoyl]amino]hexanoyl], N^ε37-[(2S)-2-amino-6-[[(2S)-2-amino-6-[[(4S)-4-carboxy-4-[12-(4-carboxyphenoxy)dodecanoylamino]butanoyl]amino]hexanoyl]amino]hexanoyl]-[Aib^8,Arg^34,Lys^37]-GLP-1-(7-37)-peptide]: the EC50 on human GLP-1 receptor is 0.136 nM. Also, in series [1], the “PD … (% of vehicle) for hours 0-24” value was 14 % of vehicle; the “PD … (% of vehicle) for hours 24-48” value was 18 % of vehicle; the “reduction in food intake (in words)” value is recorded as “very nice reduction in food intake”. The same molecule showed a half-life in series [2] of 17 h. In series [3], this molecule had a half-life of 69 h.
At human GLP-1 receptor, `CC[C@H](C)[C@H](NC(=O)[C@H](Cc1ccccc1)NC(=O)[C@H](CCC(=O)O)NC(=O)[C@H](CCCCNC(=O)[C@@H](N)CCCCNC(=O)[C@@H](N)CCCCNC(=O)CC[C@H](NC(=O)CCCCCCCNC(=O)CCCCCCCCCOc1ccc(C(=O)O)cc1)C(=O)O)NC(=O)[C@H](C)NC(=O)[C@H](C)NC(=O)[C@H](CCC(N)=O)NC(=O)CNC(=O)[C@H](CCC(=O)O)NC(=O)[C@H](CC(C)C)NC(=O)[C@H](Cc1ccc(O)cc1)NC(=O)[C@H](CO)NC(=O)[C@H](CO)NC(=O)[C@@H](NC(=O)[C@H](CC(=O)O)NC(=O)[C@H](CO)NC(=O)[C@@H](NC(=O)[C@H](Cc1ccccc1)NC(=O)[C@@H](NC(=O)CNC(=O)[C@H](CCC(=O)O)NC(=O)C(C)(C)NC(=O)[C@@H](N)Cc1c[nH]cn1)[C@@H](C)O)[C@@H](C)O)C(C)C)C(=O)N[C@@H](C)C(=O)N[C@@H](Cc1c[nH]c2ccccc12)C(=O)N[C@@H](CC(C)C)C(=O)N[C@H](C(=O)N[C@@H](CCCNC(=N)N)C(=O)NCC(=O)N[C@@H](CCCNC(=N)N)C(=O)N[C@@H](CCCCNC(=O)[C@@H](N)CCCCNC(=O)[C@@H](N)CCCCNC(=O)CC[C@H](NC(=O)CCCCCCCNC(=O)CCCCCCCCCOc1ccc(C(=O)O)cc1)C(=O)O)C(=O)O)C(C)C` [Example 26, N^ε26-[(2S)-2-amino-6-[[(2S)-2-amino-6-[[(4S)-4-carboxy-4-[8-[10-(4-carboxyphenoxy)decanoylamino]octanoylamino]butanoyl]amino]hexanoyl]amino]hexanoyl], N^ε37-[(2S)-2-amino-6-[[(2S)-2-amino-6-[[(4S)-4-carboxy-4-[8-[10-(4-carboxyphenoxy)decanoylamino]octanoylamino]butanoyl]amino]hexanoyl]amino]hexanoyl]-[Aib^8,Arg^34,Lys^37]-GLP-1-(7-37)-peptide] showed an EC50 of 0.135 nM. Further, in series [1], the “PD … (% of vehicle) for hours 0-24” value was 10 % of vehicle; the “PD … (% of vehicle) for hours 24-48” value was 26 % of vehicle; the “reduction in food intake (in words)” value is listed as “very nice reduction in food intake”. Further, in series [1] (48-72 h), the “PD in pig, food intake (% of vehicle) for hours 48-72” value was 52 % of vehicle. In series [2], this molecule gave a half-life of 16 h. The same molecule gave a half-life in series [3] of 13 h.
